This note sets out measurements from patent US10660967B2, “Curcumin conjugates and methods of use thereof” (priority 2016, dated 2020).

In data set [1] the test system is A-549 (lung) carcinoma cell line. Kind of data set: Anti-tumor properties, MTT. The settings on record: Homo sapiens, A549. In kind it is cell-based.
Data set [2] concerns lipopolysaccharide-stimulated peritoneal macrophages. Kind of data set: Production of nitric oxide by lipopolysaccharide-stimulated peritoneal macrophages (Greiss reagent). Also noted: Potency (%): % inhibition of nitric oxide production relative to lipopolysaccharide-stimulated macrophages: concentration or dose not given beside the values. The conditions noted are these: LPS-stimulated peritoneal macrophages; for Nitric oxide (nitrite) concentration, μM (average ± SD): 24 h, nitrite by Greiss reagent. The data set is classed as cell-based. In outline: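 NO output was quantified as accumulated nitrite, reacting supernatant with Greiss reagent (sulfanilamide/α-naphthylamine) and reading at 532 nm. Beforehand, cells had been incubated 24 h at 37° C. in nitrite-free, 0.1% BSA medium with 0.5–10 ng/ml LPS, with or without catecholamines at […].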

For a further data set, the system named is gastric mucosa. Kind of data set: Ulcerogenic liability (ulcer index). In kind it is in vivo, albino mice. The settings on record: orally, three successive days, 10 mg/kg indomethacin mol equivalent; for Number of animals with ulcer: 6 animals per group; for Ulcer index: sum of the three values. In outline:
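Albino mice were fasted 18 h before dosing, and controls got saline with a few drops of Tween 80. Gastric mucosa was checked under a 10× lens for lesions and erosions. The ulcer index combines percentage incidence divided by 10, mean ulcers per stomach and mean severity.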

The subject of data set [3] is PC3 (prostate) carcinoma cell line. Kind of data set: Anti-tumor properties, MTT. The data set is classed as cell-based. The conditions noted are these: Homo sapiens.
For data set [4], the system named is Salmonella typhi ATCC19430. Kind of data set: Antimicrobial MIC, agar dilution. The data set is classed as cell-based. The conditions noted are these: Salmonella enterica, read-out: Minimum inhibitory concentration (MIC).
Data set [5] has as its system MCF7 (breast) carcinoma cell line. Kind of data set: Anti-tumor properties, MTT. The data set is classed as cell-based. The conditions noted are these: Homo sapiens, MCF7; read-out: IC50 (μM) MCF7 (breast). The procedure, abridged: (§1)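 Cells seeded at 10×10^3 per well for 24 h, then exposed to compound in serum-free medium (final up to 100 μM, 0.5% DMSO vehicle) for 72 h in triplicate. Viability by MTT reduction (4 h, SDS solubilised), absorbance 595 nm/ref 620 nm; IC50 from survival curves.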

Data set [6] relates to HepG2 (hepatocellular) carcinoma cell line. Kind of data set: Anti-tumor properties, MTT. In kind it is cell-based. The settings on record: Homo sapiens, HepG2; read-out: IC50 (μM) HepG2 (liver). In outline: as §1
Data set [7] has as its system HCT116 (colon) carcinoma cell line. Kind of data set: Anti-tumor properties, MTT. In kind it is cell-based. The settings on record: Homo sapiens, HCT-116; read-out: IC50 (μM) HCT116 (colon). The procedure, abridged: as §1
For data set [8], the system named is Pseudomonas aeruginosa ATCC27853. Kind of data set: Antimicrobial MIC, agar dilution.
The subject of data set [9] is Streptococcus pyogenes ATCC19615. Kind of data set: Antimicrobial MIC, agar dilution.
The subject of data set [10] is Staphylococcus aureus ATCC25923. Kind of data set: Antimicrobial MIC, agar dilution. (Agar dilution tests growth on a series of plates holding different concentrations.)
In data set [11] the test system is Candida albicans (local isolate). Kind of data set: Antimicrobial MIC, agar dilution. The settings on record: Candida albicans, read-out: Minimum inhibitory concentration (MIC).
The subject of data set [12] is PHA-stimulated splenocytes. Kind of data set: Proliferative response of PHA-stimulated splenocytes (MTT assay). The settings on record: PHA 5 μg/ml, 72 hr; compounds at 5 μM (method says 10 μM); ratio of O.D. versus vehicle control. In kind it is cell-based. In outline: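 Readout was MTT absorbance (570 nm, reference 690 nm) after 72 h culture at 37° C. Splenocytes at 1×10^6 cells/well received test compound (10 μM final) alone or plus PHA 5 μg/ml as T-cell mitogen. Values are OD ratios of compound over vehicle control (stimulation index).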
(Tetrazolium assays rely on reduction of a dye to a coloured formazan, in cell work by metabolically active cells.)

The mark [13] stands for this setting: ATCC27853, 18 h, read-out: Minimum inhibitory concentration (MIC).
The mark [14] stands for this setting: ATCC27853, read-out: Minimum inhibitory concentration (MIC).
The mark [15] stands for this setting: ATCC19615, 18 h, read-out: Minimum inhibitory concentration (MIC).
[16] abbreviates: ATCC19615, read-out: Minimum inhibitory concentration (MIC).
Where [17] appears, read: ATCC25923, 18 h, read-out: Minimum inhibitory concentration (MIC).
Where [18] appears, read: ATCC25923, read-out: Minimum inhibitory concentration (MIC).

Where two headings read alike, the source gives them in different places. Bounds are passed on as bounds.

As to `COc1cc(/C=C/C(=O)CC(=O)/C=C/c2ccc(OC(=O)[C@@H](C)N)c(OC)c2)ccc1OC(=O)[C@@H](C)N.Cl.Cl` [HCl-D-Ala-Cur, (2R,2′R)-1,1′-((((1E,6E)-3,5-dioxohepta-1,6-diene-1,7-diyl)bis(2-methoxy-4,1-phenylene))bis(oxy))bis(1-oxopropan-2-aminium) chloride], the IC50 – broadly, the concentration needed to halve the response being measured – was 30.9 µM in data set [1]; 30.7 µM in [3]; 10.4 µM in [5]; 34.3 µM in [6]; 39.2 µM in data set [7]. Besides, in data set [2], the “Potency (%): % inhibition of nitric oxide production relative to lipopolysaccharide-stimulated macrophages” value stood at 41.26%. Further, the “Nitric oxide (nitrite) concentration, μM (average ± SD)” value in data set [2] amounted to 16.04 ± 0.46 µM. The “% Incidence of ulcer divided by 10” value in the data set with gastric mucosa was 0. Moreover, in the data set on gastric mucosa, the “Average of ulcer number” value was determined as 0. Further, the “Average severity of ulcer” value with gastric mucosa was 0. The “Number of animals with ulcer” value in the data set on gastric mucosa was 0/6. In the data set with gastric mucosa, the Ulcer index stood at 0. Also, the MIC in [4] (18 h) was found to be 0.25 µg/mL; in data set [4], 0.428 µM; in [8] (setting [13]), 1 µg/mL; in data set [8] (setting [14]), 1.71 µM; in data set [9] (setting [15]) it was 0.25 µg/mL; in data set [9] (setting [16]) it was 0.428 µM. Also, the MIC was found to be 0.125 µg/mL in data set [10] (setting [17]), 0.214 µM in data set [10] (setting [18]), 0.125 µg/mL in [11] (18 h) and 0.214 µM in data set [11]. For the same compound, the “Stimulation Index (average ± SD)” value in [12] worked out at 1.35 ± 0.07.

On to `COc1cc(/C=C/C(=O)CC(=O)/C=C/c2ccc(OC(=O)[C@@H](CCSC)NC(=O)OCc3ccccc3)c(OC)c2)ccc1OC(=O)[C@@H](CCSC)NC(=O)OCc1ccccc1` [Z-D-Met-Cur, ((1E,6E)-3,5-dioxohepta-1,6-diene-1,7-diyl)bis(2-methoxy-4,1-phenylene) (2R,2′R)-bis(2-(((benzyloxy)carbonyl)amino)-4-(methylthio)butanoate)], for which the IC50 in [1], in data set [3], in data set [5], in data set [6] and in [7] was above 100 µM each time. Besides, the “Potency (%): % inhibition of nitric oxide production relative to lipopolysaccharide-stimulated macrophages” value in data set [2] is on record as 40.84%. In addition, the “Nitric oxide (nitrite) concentration, μM (average ± SD)” value in data set [2] came out at 16.16 ± 1.90 µM. In the data set with gastric mucosa, the “% Incidence of ulcer divided by 10” value is on record as 0. In addition, the “Average of ulcer number” value with gastric mucosa is 0. Besides, the “Average severity of ulcer” value with gastric mucosa was found to be 0. Further, in the data set on gastric mucosa, the “Number of animals with ulcer” value is recorded as 0/6. Further, the Ulcer index with gastric mucosa was found to be 0. Besides, the MIC in data set [4] (18 h) turned out to be 0.5 µg/mL; in [4], 0.556 µM; in [8] (setting [13]), 1 µg/mL; in [8] (setting [14]), 1.11 µM; in [9] (setting [15]) it was 0.125 µg/mL; in data set [9] (setting [16]), 0.139 µM. Moreover, the MIC stood at 0.125 µg/mL in [10] (setting [17]), 0.139 µM in data set [10] (setting [18]), 0.125 µg/mL in data set [11] (18 h) and 0.139 µM in [11]. Moreover, the “Stimulation Index (average ± SD)” value in [12] stood at 1.37 ± 0.29.
